Experimental data reported in ChEMBL document CHEMBL5370572, “Coscinoderines A-J: Trisubstituted Pyridinium-Containing Norterpenoids Isolated from Coscinoderma bakusi, a Tropical Marine Sponge” (J Nat Prod, 2023).
Activity calls are given as the source filed them. The rule behind the calls is not given here.

How the values were obtained:
[1] = system: HEK293; test: Cytotoxicity against HEK293 cells assessed as reduction in cell proliferation at 1.25 to 80 uM measured after 48 hrs by MTS assay; type: toxicity, cell-based; conditions: human, hek293, 48 h, dose 1.25-80 µM
[2] = system: Staphylococcus aureus; test: Antibacterial activity against Staphylococcus aureus ATCC 25923 assessed as inhibition of bacterial growth at 45.4 uM; type: functional, organism-based
[3] = system: Micrococcus luteus; test: Antibacterial activity against Micrococcus luteus KCTC 1915 assessed as inhibition of bacterial growth at 72.6 uM; type: functional, organism-based
[4] = system: Micrococcus luteus; test: Antibacterial activity against Micrococcus luteus KCTC 1915 assessed as inhibition of bacterial growth at 75 uM; type: functional, organism-based

Structure (SMILES)	Activity [1]	inhibition [2]	inhibition [3]	inhibition [4]
CC(C)=CCC/C(C)=C/CC/C(C)=C/CCCc1ccc(CC(=O)O)c[n+]1CC(=O)O	Non-Toxic	–	–	–
C=C(C)[C@@]1(CC/C(C)=C/CCCc2ccc(CC(=O)O)c[n+]2C[C@@H](C)CC)CCC[C@H]1C	Non-Toxic	Active	Active	–
CC1=C(CC/C(C)=C/CCCc2ccc(CC(=O)O)c[n+]2CCS(=O)(=O)O)C(C)(C)CCC1	Non-Toxic	–	–	–
C=C(C)[C@@]1(CC/C(C)=C/CCCc2ccc(CC(=O)O)c[n+]2CC(C)C)CCC[C@H]1C	Non-Toxic	–	–	Active
